The kinase profiling compilation of Christmann-Franck et al. (2016)
Several values for one entry are separate records, joined by “and”; a condition that tells them apart may be missing. Equal entries are not always repeated.

Tests used:
Assay in all cases: radiometric filter-binding kinase assay, Kinaseprofiler
[1] = target: AURKC (human) (UniProt Q9UQB9); conditions: ATP 15 µM
[2] = target: BMX (human) (UniProt P51813); conditions: ATP 45 µM
[3] = target: BRSK1 (human) (UniProt Q8TDC3); conditions: ATP 200 µM
[4] = target: CDK7 CCNH MNAT1 (human) (UniProt P50613+P51948+P51946); conditions: ATP 90 µM
[5] = target: CHEK1 (human) (UniProt O14757); conditions: ATP 90 µM
[6] = target: CSNK1G1 (human) (UniProt Q9HCP0); conditions: ATP 15 µM
[7] = target: CSNK1G2 (human) (UniProt P78368); conditions: ATP 10 µM
[8] = target: EPHA1 (human) (UniProt P21709); conditions: ATP 45 µM
[9] = target: FGFR1 (human) (UniProt P11362); conditions: ATP 200 µM
[10] = target: FGR (human) (UniProt P09769); conditions: ATP 45 µM
[11] = target: HIPK1 (human) (UniProt Q86Z02); conditions: ATP 45 µM
[12] = target: IGF1R (human) (UniProt P08069); conditions: compound 1.0 µM
[13] = target: INSR (human) (UniProt P06213)
[14] = target: KDR (human) (UniProt P35968); conditions: ATP 90 µM
[15] = target: MAP3K5 (human) (UniProt Q99683); conditions: ATP 200 µM
[16] = target: MAPK1 (human) (UniProt P28482); conditions: ATP 155 µM
[17] = target: MAPKAPK3 (human) (UniProt Q16644); conditions: ATP 90 µM
[18] = target: MUSK (human) (UniProt O15146); conditions: ATP 155 µM
[19] = target: NEK11 (human) (UniProt Q8NG66); conditions: ATP 200 µM
[20] = target: NEK3 (human) (UniProt P51956); conditions: ATP 120 µM
[21] = target: NEK7 (human) (UniProt Q8TDX7); conditions: ATP 45 µM
[22] = target: NUAK1 (human) (UniProt O60285); conditions: ATP 45 µM
[23] = target: PAK4 (human) (UniProt O96013); conditions: ATP 10 µM
[24] = target: PAK7 (human) (UniProt Q9P286); conditions: ATP 15 µM
[25] = target: PIM1 (human) (UniProt P11309); conditions: ATP 90 µM
[26] = target: PRKCD (human) (UniProt Q05655); conditions: ATP 15 µM
[27] = target: PRKG1 (human) (UniProt Q13976); conditions: ATP 90 µM
[28] = target: PTK2B (human) (UniProt Q14289); conditions: ATP 90 µM
[29] = target: RIPK2 (human) (UniProt O43353); conditions: ATP 120 µM
[30] = target: SRPK2 (human) (UniProt P78362); conditions: ATP 10 µM
[31] = target: SRPK3 (human) (UniProt Q9UPE1); conditions: ATP 15 µM
[32] = target: TYRO3 (human) (UniProt Q06418); conditions: ATP 45 µM

Chain of INSR (human) (P06213 whole entry, looked up): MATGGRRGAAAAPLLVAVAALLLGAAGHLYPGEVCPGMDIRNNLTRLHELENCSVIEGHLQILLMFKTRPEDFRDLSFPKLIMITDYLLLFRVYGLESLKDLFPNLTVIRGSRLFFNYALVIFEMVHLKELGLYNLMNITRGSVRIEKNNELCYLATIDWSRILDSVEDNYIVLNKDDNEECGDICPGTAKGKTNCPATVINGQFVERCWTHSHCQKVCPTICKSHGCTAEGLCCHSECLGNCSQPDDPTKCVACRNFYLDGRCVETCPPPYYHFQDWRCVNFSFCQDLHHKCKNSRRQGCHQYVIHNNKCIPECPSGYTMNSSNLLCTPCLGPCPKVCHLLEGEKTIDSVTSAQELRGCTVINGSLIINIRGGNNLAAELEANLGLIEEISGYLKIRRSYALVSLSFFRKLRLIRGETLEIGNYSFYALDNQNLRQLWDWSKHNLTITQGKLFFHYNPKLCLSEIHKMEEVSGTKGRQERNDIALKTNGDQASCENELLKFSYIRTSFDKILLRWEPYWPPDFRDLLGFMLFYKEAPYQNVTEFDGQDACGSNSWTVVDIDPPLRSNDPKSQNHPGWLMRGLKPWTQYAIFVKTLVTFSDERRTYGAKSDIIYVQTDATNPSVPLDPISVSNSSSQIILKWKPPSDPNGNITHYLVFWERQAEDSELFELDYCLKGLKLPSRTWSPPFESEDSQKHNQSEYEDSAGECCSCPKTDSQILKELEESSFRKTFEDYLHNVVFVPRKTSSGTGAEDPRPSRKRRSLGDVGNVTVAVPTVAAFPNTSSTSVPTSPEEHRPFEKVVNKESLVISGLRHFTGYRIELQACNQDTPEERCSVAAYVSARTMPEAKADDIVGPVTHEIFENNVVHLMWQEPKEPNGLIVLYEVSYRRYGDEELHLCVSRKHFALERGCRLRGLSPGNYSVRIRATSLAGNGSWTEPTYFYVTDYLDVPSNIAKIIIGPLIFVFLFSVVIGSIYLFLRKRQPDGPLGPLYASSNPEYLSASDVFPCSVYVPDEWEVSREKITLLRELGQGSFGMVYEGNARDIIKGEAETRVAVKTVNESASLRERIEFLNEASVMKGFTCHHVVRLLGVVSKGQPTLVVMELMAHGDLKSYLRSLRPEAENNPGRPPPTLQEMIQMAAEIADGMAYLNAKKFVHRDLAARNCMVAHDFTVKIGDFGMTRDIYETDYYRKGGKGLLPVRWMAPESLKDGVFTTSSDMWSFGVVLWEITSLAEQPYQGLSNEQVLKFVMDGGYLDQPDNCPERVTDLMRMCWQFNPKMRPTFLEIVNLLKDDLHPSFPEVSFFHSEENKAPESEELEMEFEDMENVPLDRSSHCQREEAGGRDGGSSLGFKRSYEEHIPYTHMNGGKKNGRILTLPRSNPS
Chain of PRKG1 (human) (Q13976 whole entry, looked up): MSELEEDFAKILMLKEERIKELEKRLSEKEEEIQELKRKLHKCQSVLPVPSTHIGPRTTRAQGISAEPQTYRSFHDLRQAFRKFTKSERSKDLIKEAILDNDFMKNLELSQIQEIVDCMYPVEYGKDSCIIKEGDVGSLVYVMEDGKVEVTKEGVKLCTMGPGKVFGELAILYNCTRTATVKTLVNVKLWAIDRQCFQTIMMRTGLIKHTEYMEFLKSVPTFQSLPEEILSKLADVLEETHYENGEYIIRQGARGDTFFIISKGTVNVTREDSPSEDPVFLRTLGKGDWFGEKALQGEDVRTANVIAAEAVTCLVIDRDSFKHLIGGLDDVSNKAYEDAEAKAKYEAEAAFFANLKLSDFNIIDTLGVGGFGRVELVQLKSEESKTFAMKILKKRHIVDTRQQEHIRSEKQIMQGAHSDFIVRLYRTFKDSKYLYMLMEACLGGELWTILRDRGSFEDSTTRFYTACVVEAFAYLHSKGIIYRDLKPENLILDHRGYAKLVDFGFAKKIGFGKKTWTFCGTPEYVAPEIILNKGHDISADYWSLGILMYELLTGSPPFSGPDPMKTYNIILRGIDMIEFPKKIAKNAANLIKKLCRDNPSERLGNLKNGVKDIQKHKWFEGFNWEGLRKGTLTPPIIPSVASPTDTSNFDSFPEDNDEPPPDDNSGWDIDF
Chain of PRKCD (human) (Q05655 whole entry, looked up): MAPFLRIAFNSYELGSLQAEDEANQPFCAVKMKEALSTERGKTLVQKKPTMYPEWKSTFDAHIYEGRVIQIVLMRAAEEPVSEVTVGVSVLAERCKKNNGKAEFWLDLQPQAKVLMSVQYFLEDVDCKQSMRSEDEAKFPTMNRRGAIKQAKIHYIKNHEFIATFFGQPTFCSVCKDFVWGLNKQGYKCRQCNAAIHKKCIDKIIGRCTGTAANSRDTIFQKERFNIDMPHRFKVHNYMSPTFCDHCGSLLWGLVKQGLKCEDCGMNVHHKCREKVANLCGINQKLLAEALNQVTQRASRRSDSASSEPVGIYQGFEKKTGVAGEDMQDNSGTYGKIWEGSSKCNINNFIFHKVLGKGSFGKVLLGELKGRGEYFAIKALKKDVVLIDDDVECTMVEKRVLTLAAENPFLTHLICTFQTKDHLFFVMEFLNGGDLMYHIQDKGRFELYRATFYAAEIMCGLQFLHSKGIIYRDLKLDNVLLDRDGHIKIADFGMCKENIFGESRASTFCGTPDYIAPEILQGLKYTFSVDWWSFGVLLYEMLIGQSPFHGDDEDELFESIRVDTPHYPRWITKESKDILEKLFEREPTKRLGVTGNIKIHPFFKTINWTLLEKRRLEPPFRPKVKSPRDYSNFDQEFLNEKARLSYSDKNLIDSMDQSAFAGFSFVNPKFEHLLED
Chain of NEK7 (human) (Q8TDX7 whole entry, looked up): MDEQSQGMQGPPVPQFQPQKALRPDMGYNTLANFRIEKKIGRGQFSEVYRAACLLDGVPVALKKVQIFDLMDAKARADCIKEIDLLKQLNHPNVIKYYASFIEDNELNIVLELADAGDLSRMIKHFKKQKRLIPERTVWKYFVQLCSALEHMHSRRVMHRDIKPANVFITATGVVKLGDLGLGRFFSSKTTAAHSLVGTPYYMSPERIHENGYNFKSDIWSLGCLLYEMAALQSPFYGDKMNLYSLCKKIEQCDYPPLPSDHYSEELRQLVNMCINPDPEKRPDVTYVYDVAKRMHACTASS
Chain of MAPKAPK3 (human) (Q16644 whole entry, looked up): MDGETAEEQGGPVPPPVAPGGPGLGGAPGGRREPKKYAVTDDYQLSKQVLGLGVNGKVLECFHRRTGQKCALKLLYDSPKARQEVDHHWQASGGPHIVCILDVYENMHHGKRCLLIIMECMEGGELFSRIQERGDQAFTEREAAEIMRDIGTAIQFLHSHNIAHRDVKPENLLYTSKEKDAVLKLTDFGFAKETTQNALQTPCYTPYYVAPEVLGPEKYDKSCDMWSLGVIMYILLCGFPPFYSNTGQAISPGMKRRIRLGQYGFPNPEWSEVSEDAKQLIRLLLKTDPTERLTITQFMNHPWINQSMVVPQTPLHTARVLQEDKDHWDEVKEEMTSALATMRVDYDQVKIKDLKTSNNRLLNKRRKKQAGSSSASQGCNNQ
Chain of CHEK1 (human) (O14757 whole entry, looked up): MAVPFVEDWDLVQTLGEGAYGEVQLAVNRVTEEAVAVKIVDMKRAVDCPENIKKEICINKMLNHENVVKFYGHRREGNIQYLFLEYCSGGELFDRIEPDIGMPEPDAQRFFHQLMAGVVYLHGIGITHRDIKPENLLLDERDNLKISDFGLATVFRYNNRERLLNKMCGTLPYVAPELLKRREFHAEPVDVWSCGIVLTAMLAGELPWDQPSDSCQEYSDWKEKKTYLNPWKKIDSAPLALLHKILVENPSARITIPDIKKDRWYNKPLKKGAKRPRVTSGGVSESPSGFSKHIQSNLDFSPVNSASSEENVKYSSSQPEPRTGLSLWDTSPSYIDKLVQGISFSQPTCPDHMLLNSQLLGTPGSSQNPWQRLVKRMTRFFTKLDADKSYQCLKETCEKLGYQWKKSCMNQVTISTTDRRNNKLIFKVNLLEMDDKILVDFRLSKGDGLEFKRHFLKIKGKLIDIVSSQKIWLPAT
Chain of AURKC (human) (Q9UQB9 whole entry, looked up): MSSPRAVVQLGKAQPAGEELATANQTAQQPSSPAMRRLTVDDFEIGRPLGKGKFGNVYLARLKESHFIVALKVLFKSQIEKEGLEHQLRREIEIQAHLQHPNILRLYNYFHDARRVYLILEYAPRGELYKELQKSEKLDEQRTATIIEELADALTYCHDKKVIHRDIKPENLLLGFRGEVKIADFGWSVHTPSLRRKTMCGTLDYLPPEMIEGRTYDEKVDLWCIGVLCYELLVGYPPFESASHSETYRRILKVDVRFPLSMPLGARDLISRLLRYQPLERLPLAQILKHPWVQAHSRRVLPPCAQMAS
Chain of BMX (human) (P51813 whole entry, looked up): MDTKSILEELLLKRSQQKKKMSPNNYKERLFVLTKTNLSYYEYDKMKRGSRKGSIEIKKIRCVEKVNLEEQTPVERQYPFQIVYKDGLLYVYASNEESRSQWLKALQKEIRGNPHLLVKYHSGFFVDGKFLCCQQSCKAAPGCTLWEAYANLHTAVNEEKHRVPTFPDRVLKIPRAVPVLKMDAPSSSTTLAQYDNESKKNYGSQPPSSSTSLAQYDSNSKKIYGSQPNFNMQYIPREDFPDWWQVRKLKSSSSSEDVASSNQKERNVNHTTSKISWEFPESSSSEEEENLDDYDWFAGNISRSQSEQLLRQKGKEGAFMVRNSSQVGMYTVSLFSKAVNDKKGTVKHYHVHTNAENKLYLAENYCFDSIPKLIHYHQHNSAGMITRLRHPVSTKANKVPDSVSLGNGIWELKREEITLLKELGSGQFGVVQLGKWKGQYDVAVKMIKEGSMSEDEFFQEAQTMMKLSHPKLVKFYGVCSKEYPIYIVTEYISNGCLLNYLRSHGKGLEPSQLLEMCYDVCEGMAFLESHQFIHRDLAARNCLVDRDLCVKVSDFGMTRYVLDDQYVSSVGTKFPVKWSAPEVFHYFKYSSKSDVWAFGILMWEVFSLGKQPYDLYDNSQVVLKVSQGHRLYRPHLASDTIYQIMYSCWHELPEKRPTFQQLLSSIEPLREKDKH

O=C1c2ccccc2-c2n[nH]c3cccc1c23
residual activity ([1]; compound 1.0 µM): 9% | residual activity ([1]; compound 10.0 µM): 4% | residual activity ([2]; compound 1.0 µM): 59% | residual activity ([2]; compound 10.0 µM): 18% | residual activity ([3]; compound 1.0 µM): 38% | residual activity ([3]; compound 10.0 µM): 29% | residual activity ([4]; compound 1.0 µM): 75% | residual activity ([4]; compound 10.0 µM): 24% | residual activity ([5]; compound 1.0 µM): 72% | residual activity ([5]; compound 10.0 µM): 32% | residual activity ([6]; compound 1.0 µM): 99% | residual activity ([6]; compound 10.0 µM): 48% | residual activity ([7]; compound 1.0 µM): 70% | residual activity ([7]; compound 10.0 µM): 6% | residual activity ([8]; compound 1.0 µM): 67% | residual activity ([8]; compound 10.0 µM): 42% | residual activity ([9]; compound 1.0 µM): 39% | residual activity ([9]; compound 10.0 µM): 4% | residual activity ([10]; compound 1.0 µM): 75% | residual activity ([10]; compound 10.0 µM): 38% | residual activity ([11]; compound 1.0 µM): 93% | residual activity ([11]; compound 10.0 µM): 62% | residual activity ([12]; ATP 45 µM): 92% | residual activity ([12]; ATP 200 µM): 91% | residual activity ([13]; compound 1.0 µM, ATP 45 µM): 70% | residual activity ([13]; compound 1.0 µM, ATP 200 µM): 81% | residual activity ([13]; compound 10.0 µM, ATP 45 µM): 26% | residual activity ([13]; compound 10.0 µM, ATP 200 µM): 47% | residual activity ([14]; compound 1.0 µM): 17% | residual activity ([14]; compound 10.0 µM): 3% | residual activity ([15]; compound 1.0 µM): 36% | residual activity ([15]; compound 10.0 µM): 5% | residual activity ([16]; compound 1.0 µM): 88% | residual activity ([16]; compound 10.0 µM): 55% | residual activity ([17]; compound 1.0 µM): 100% | residual activity ([17]; compound 10.0 µM): 103% | residual activity ([18]; compound 1.0 µM): 60% | residual activity ([18]; compound 10.0 µM): 24% | residual activity ([19]; compound 1.0 µM): 50% | residual activity ([19]; compound 10.0 µM): 47% | residual activity ([20]; compound 1.0 µM): 70% | residual activity ([20]; compound 10.0 µM): 79% | residual activity ([21]; compound 1.0 µM): 99% | residual activity ([21]; compound 10.0 µM): 89% | residual activity ([22]; compound 1.0 µM): 28% | residual activity ([22]; compound 10.0 µM): 17% | residual activity ([23]; compound 1.0 µM): 88% | residual activity ([23]; compound 10.0 µM): 45% | residual activity ([24]; compound 1.0 µM): 99% | residual activity ([24]; compound 10.0 µM): 64% | residual activity ([25]; compound 1.0 µM): 68% | residual activity ([25]; compound 10.0 µM): 18% | residual activity ([26]; compound 1.0 µM): 99% | residual activity ([26]; compound 10.0 µM): 71% | residual activity ([27]; compound 1.0 µM): 90% and 79% | residual activity ([27]; compound 10.0 µM): 60% and 79% | residual activity ([28]; compound 1.0 µM): 68% | residual activity ([28]; compound 10.0 µM): 23% | residual activity ([29]; compound 1.0 µM): 70% | residual activity ([29]; compound 10.0 µM): 52% | residual activity ([30]; compound 1.0 µM): 97% | residual activity ([30]; compound 10.0 µM): 57% | residual activity ([31]; compound 1.0 µM): 90% | residual activity ([31]; compound 10.0 µM): 82% | residual activity ([32]; compound 1.0 µM): 97% | residual activity ([32]; compound 10.0 µM): 81%
